{"source": "patent US10822342B2", "about": "“Pyrazolopyrimidine derivatives as NIK inhibitors” (Janssen Pharmaceutica NV, priority 2014, dated 2020)", "key": {"L-363 cells": {"tested_on": "L-363 cells", "experiment": "Antiproliferative activity on L-363 cells (CellTiter-Glo)", "assay_type": "cell-based", "details": "Homo sapiens, 72 hr treatment, averaged values", "method": "(§1) Determination of Antiproliferative Activity on LP-1, L-363 and JJN-3 Cells\n(§2) All compounds tested were dissolved in DMSO and further dilutions were made in culture medium. Final DMSO concentration was 0.3% (v/v) in cell proliferation assays. Viability was assessed using CellTiter-Glo cell viability assay kit (Promega). The human LP-1, L-363 and JJN-3 cells (DSMZ) were cultured in RPMI 1640 medium supplemented with 2 mM L-glutamine, and 10% fetal calf serum (PAA). Cells were routinely kept as suspension cells at 37° C. in a humidified 5% CO2 atmosphere. Cells were passaged at a seeding density of 0.2×10^6/ml twice a week. Cells were seeded in black tissue culture treated 96-well plates (Perkin Elmer). Densities used for plating ranged from 2,000 to 6,000 cells per well in a total volume of 75 μl medium. After twenty four hours, drugs and/or solvents were added (25 μl) to a final volume of 100 μl. Following 72 hr of treatment plates were removed from the incubator and allowed to equilibrate to room temperature for approx 10 min. 100 μl CellTiter-Glo reagent was added to each well that was then covered (Perkin Elmer Topseal) and shaken on plate shaker for 10 min. Luminescence was measured on a HTS Topcount (Perkin Elmer). Within an experiment, the results for each treatment were the mean of 2 replicate wells. For initial screening purposes, compounds were tested using a 9 point dilution curve (serial 1:3 dilutions). For each experiment, controls (containing no drug) and a blank incubation (containing cells read at the time of compound addition) were run in parallel. The blank value was subtracted from all control and sample values. For each sample, the mean value for cell growth (in relative light units) was expressed as a percentage of the mean value for cell growth of the control."}, "LP-1 cells": {"tested_on": "LP-1 cells", "experiment": "Antiproliferative activity on LP-1 cells (CellTiter-Glo)", "assay_type": "cell-based", "details": "Homo sapiens, 72 hr treatment, averaged values", "method": "as §1, §2"}, "JJN-3 cells": {"tested_on": "JJN-3 cells", "experiment": "Antiproliferative activity on JJN-3 cells (CellTiter-Glo)", "assay_type": "cell-based", "details": "Homo sapiens, 72 hr treatment, averaged values", "method": "as §1, §2"}, "[1]": {"target": "Recombinant Human NF-kappaB-Inducing Kinase (NIK/MAP3K14) (Homo sapiens (Human), UniProt Q99558)", "sequence (Q99558 whole entry)": "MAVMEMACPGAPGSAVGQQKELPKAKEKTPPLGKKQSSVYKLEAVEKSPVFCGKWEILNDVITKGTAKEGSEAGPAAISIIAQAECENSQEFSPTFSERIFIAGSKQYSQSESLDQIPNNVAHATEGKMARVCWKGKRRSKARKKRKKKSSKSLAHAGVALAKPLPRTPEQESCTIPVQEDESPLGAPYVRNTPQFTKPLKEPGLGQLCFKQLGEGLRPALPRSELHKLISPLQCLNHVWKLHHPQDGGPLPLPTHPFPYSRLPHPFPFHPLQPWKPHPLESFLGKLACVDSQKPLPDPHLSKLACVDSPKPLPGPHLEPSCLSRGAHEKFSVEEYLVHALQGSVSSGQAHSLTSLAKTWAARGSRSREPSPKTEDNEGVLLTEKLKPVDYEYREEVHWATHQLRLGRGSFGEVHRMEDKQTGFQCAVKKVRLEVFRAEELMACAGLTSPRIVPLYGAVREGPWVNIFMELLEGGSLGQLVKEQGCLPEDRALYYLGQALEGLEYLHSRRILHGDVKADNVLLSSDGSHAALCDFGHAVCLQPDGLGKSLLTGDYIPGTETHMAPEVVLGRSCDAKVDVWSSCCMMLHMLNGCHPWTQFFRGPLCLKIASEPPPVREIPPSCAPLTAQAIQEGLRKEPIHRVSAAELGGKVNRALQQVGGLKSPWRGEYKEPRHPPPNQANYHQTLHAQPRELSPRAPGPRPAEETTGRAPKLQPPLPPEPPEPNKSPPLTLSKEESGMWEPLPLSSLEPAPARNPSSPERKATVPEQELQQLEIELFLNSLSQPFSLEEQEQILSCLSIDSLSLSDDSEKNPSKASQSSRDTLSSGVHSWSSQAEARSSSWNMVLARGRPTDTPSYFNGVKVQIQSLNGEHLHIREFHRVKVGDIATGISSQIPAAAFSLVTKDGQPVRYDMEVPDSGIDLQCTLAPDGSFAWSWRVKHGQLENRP", "experiment": "Inhibition of auto-phosphorylation of recombinant human NIK/MAP3K14 activity (AlphaScreen)", "assay_type": "biochemical", "details": "GST-tagged NIK/MAP3K14 0.2 nM, 25 microM ATP, 1 h at 25° C.; averaged over all measurements on all batches; read-out: Alpha-Screen IC50", "method": "Inhibition of Auto-Phosphorylation of Recombinant Human NF-kappaB-Inducing Kinase (NIK/MAP3K14) Activity (AlphaScreen®)\nNIK/MAP3K14 auto-phosphorylation activity was measured using the AlphaScreen® (αscreen) format (Perkin Elmer). All compounds tested were dissolved in dimethyl sulfoxide (DMSO) and further dilutions were made in assay buffer. Final DMSO concentration was 1% (v/v) in assays. Assay buffer was 50 mM Tris pH 7.5 containing 1 mM EGTA (ethylene glycol tetraacetic acid), 1 mM DTT (dithiothreitol), 0.1 mM Na3VO4, 5 mM MgCl2, 0.01% Tween® 20. Assays were carried out in 384 well Alphaplates (Perkin Elmer). Incubations consisted of compound, 25 microM Adenosine-5′-triphosphate (ATP), and 0.2 nM NIK/MAP3K14. Incubations were initiated by addition of GST-tagged NIK/MAP3K14 enzyme, carried out for 1 h at 25° C. and terminated by addition of stop buffer containing anti-phospho-IKK Ser176/180 antibody. Protein A Acceptor and Glutathione-Donor beads were added before reading using an EnVision® Multilabel Plate Reader (Perkin Elmer). Signal obtained in the wells containing blank samples was subtracted from all other wells and IC50's were determined by fitting a sigmoidal curve to % inhibition of control versus Log10 compound concentration."}, "[2]": {"tested_on": "P-IKKα levels in L363 cells", "experiment": "Effect of compounds on P-IKKα levels in L363 cells", "assay_type": "cell-based", "details": "Homo sapiens, L-363, BAFF stimulated, 2 hr treatment, Mesoscale sandwich immuno-assay, averaged values, read-out: IKKα Cellular IC50", "method": "Effect of Compounds on P-IKKα Levels in L363 Cells\nAll compounds tested were dissolved in DMSO and further dilutions were made in culture medium. Final DMSO concentration was 1% (v/v) in cell assays. The human L363 cells (ATCC) were cultured in RPMI 1640 medium supplemented with GlutaMax and 10% fetal calf serum (PAA). Cells were routinely maintained at densities of 0.2×10^6 cells per ml—1×10^6 cells per ml at 37° C. in a humidified 5% CO2 atmosphere. Cells were passaged twice a week splitting back to obtain the low density. Cells were seeded in 96 well plates (Nunc 167008) at 2×10^6 per ml media in a volume of 75 μl per well plus 25 μl 1 μg/ml recombinant human B-cell activating factor (BAFF/BLyS/TNFSF13B). Seeded cells were incubated at 37° C. in a humidified 5% CO2 atmosphere for 24 hr. Drugs and/or solvents were added (20 μl) to a final volume of 120 μl. Following 2 hr treatment plates were removed from the incubator and cell lysis was achieved by the addition of 30 μl 5× lysis buffer followed by shaking on a plate shaker at 4° C. for 10 min. At the end of this incubation lysed cells were centrifuged at 800×g for 20 min at 4° C. and the lysate was assessed for P-IKKα levels by sandwich immuno-assay carried out in anti-rabbit antibody coated Mesoscale plates. Within an experiment, the results for each treatment were the mean of 2 replicate wells. […]"}}, "note": "pEC50, pIC50: −log10 of the molar value."}
{"smiles": "COCCCn1cc(-c2nc(N)nc3cn(C)nc23)c2cc(C#CC(C)(C)O)ncc21", "note": "[Compound 1]", "values": [{"measurement": "pEC50", "setting": "L-363 cells", "result": 6.18}, {"measurement": "pEC50", "setting": "LP-1 cells", "result": 5.17}, {"measurement": "pEC50", "setting": "JJN-3 cells", "result": 6.27}, {"measurement": "pIC50", "setting": "[1]", "result": 7.34}]}
{"smiles": "COCCCn1cc(-c2nc(N)nc3cn(C)nc23)c2cc(C#CC(C)(O)C3CC3)ncc21", "note": "(stereo not shown) [Compound 2]", "values": [{"measurement": "pEC50", "setting": "L-363 cells", "result": 6.41}, {"measurement": "pIC50", "setting": "[2]", "result": 6.99}, {"measurement": "pEC50", "setting": "LP-1 cells", "result": 5.53}, {"measurement": "pEC50", "setting": "JJN-3 cells", "result": 6.45}, {"measurement": "pIC50", "setting": "[1]", "result": 7.64}]}
{"smiles": "CCn1cc2nc(N)nc(-c3cn(CCCOC)c4cc(F)c(C#CC(C)(O)C5CC5)cc34)c2n1", "note": "(stereo not shown) [Compound 3]", "values": [{"measurement": "pEC50", "setting": "L-363 cells", "result": 6.61}, {"measurement": "pEC50", "setting": "LP-1 cells", "result": 6.07}, {"measurement": "pEC50", "setting": "JJN-3 cells", "result": 6.74}, {"measurement": "pIC50", "setting": "[1]", "result": 6.00}]}
{"smiles": "[2H]C([2H])([2H])C(O)(C#Cc1cc2c(-c3nc(N)nc4cn(CC)nc34)cn(CCCOC)c2cc1F)C([2H])([2H])[2H]", "note": "[Compound 4]", "values": [{"measurement": "pEC50", "setting": "L-363 cells", "result": 7.16}, {"measurement": "pEC50", "setting": "LP-1 cells", "result": 6.61}, {"measurement": "pEC50", "setting": "JJN-3 cells", "result": 6.99}, {"measurement": "pIC50", "setting": "[1]", "result": 7.19}]}
{"smiles": "[2H]C([2H])([2H])n1cc2nc(N)nc(-c3cn(C4CCN(CC)C4)c4cc(F)c(C#CC(O)(C([2H])([2H])[2H])C([2H])([2H])[2H])cc34)c2n1", "note": "(stereo not shown) [Compound 5]", "values": [{"measurement": "pEC50", "setting": "L-363 cells", "result": 7.28}, {"measurement": "pEC50", "setting": "LP-1 cells", "result": 6.89}, {"measurement": "pEC50", "setting": "JJN-3 cells", "result": 7.34}, {"measurement": "pIC50", "setting": "[1]", "result": 6.95}]}
{"smiles": "[2H]C([2H])([2H])C(O)(C#Cc1cc2c(-c3nc(N)nc4cn(CC)nc34)cn(C3CCN(CC)C3)c2cc1F)C([2H])([2H])[2H]", "note": "(stereo not shown) [Compound 6]", "values": [{"measurement": "pEC50", "setting": "L-363 cells", "result": 7.42}, {"measurement": "pEC50", "setting": "LP-1 cells", "result": 7.15}, {"measurement": "pEC50", "setting": "JJN-3 cells", "result": 7.40}, {"measurement": "pIC50", "setting": "[1]", "result": 7.43}]}
{"smiles": "[2H]C([2H])([2H])C(O)(C#Cc1cc2c(-c3nc(N)nc4cn(CC)nc34)cn(C3CN(CC4CC4)C3)c2cc1F)C([2H])([2H])[2H]", "note": "[Compound 7]", "values": [{"measurement": "pEC50", "setting": "L-363 cells", "result": 7.28}, {"measurement": "pEC50", "setting": "LP-1 cells", "result": 6.69}, {"measurement": "pEC50", "setting": "JJN-3 cells", "result": 7.02}, {"measurement": "pIC50", "setting": "[1]", "result": 7.22}]}
{"smiles": "COCCCn1cc(-c2nc(N)nc3cn(C4CC4)nc23)c2cc(C#CC(C)(O)C3CC3)ncc21", "note": "(stereo not shown) [Compound 8]", "values": [{"measurement": "pEC50", "setting": "L-363 cells", "result": 7.12}, {"measurement": "pEC50", "setting": "LP-1 cells", "result": 6.40}, {"measurement": "pEC50", "setting": "JJN-3 cells", "result": 7.11}, {"measurement": "pIC50", "setting": "[1]", "result": 7.42}]}
{"smiles": "CCn1cc2nc(N)nc(-c3cn(CCCOC)c4cnc(C#CC(C)(O)C5CC5)cc34)c2n1", "note": "(stereo not shown) [Compound 9]", "values": [{"measurement": "pEC50", "setting": "L-363 cells", "result": 6.79}, {"measurement": "pEC50", "setting": "LP-1 cells", "result": 6.20}, {"measurement": "pEC50", "setting": "JJN-3 cells", "result": 6.66}, {"measurement": "pIC50", "setting": "[1]", "result": 7.28}]}
{"smiles": "CCn1cc2nc(N)nc(-c3cn(C4CN(C5CC5)C4)c4cnc(C#CC(C)(O)C5CC5)cc34)c2n1", "note": "(stereo not shown) [Compound 10]", "values": [{"measurement": "pEC50", "setting": "L-363 cells", "result": 6.62}, {"measurement": "pEC50", "setting": "LP-1 cells", "result": 6.10}, {"measurement": "pEC50", "setting": "JJN-3 cells", "result": 6.39}, {"measurement": "pIC50", "setting": "[1]", "result": 6.73}]}
{"smiles": "[2H]C([2H])([2H])C(O)(C#Cc1cc2c(-c3nc(N)nc4cn(CC)nc34)cn(C3CN(CC4CC4)C3)c2cn1)C([2H])([2H])[2H]", "note": "[Compound 11]", "values": [{"measurement": "pEC50", "setting": "L-363 cells", "result": 7.21}, {"measurement": "pEC50", "setting": "LP-1 cells", "result": 5.93}, {"measurement": "pEC50", "setting": "JJN-3 cells", "result": 6.80}, {"measurement": "pIC50", "setting": "[1]", "result": 6.84}]}
{"smiles": "[2H]C([2H])([2H])C(O)(C#Cc1cc2c(-c3nc(N)nc4cn(CC)nc34)cn(C3CN(C4CC4)C3)c2cn1)C([2H])([2H])[2H]", "note": "[Compound 12]", "values": [{"measurement": "pEC50", "setting": "L-363 cells", "result": 6.85}, {"measurement": "pEC50", "setting": "LP-1 cells", "result": 6.06}, {"measurement": "pEC50", "setting": "JJN-3 cells", "result": 6.52}, {"measurement": "pIC50", "setting": "[1]", "result": 7.08}]}
